SMILES	melting point
O=C(N[C@H](Cc1ccc(OC(F)(F)F)cc1)[C@@H](O)c1ccc(F)cc1)c1cccc2c1C=CCCC2 (racemic) [Example 135, N-[(1RS,2SR)-2-(4-fluorophenyl)-2-hydroxy-1-[4-(trifluoromethoxy)benzyl]ethyl]-6,7-dihydro-5H-benzo[a]cycloheptene-1-carboxamide]	202 to 203 °C
O=C(CC(F)(F)F)N[C@H](Cc1ccc(C(F)(F)F)cc1)[C@@H](O)c1ccc(F)cc1 (racemic) [Example 109, N-[(1RS,2SR)-2-(4-fluorophenyl)-2-hydroxy-1-[4-(trifluoromethyl)benzyl]ethyl]-3,3,3-trifluoropropionamide]	179 to 180 °C
COc1ccc(C[C@@H](NC(=O)C2CCCCC2)[C@@H](O)c2ccc(F)cc2)cc1 (racemic) [Example 150, N-((1RS,2SR)-2-(4-fluorophenyl)-2-hydroxy-1-((4-(methyloxy)phenyl)methyl)ethyl)cyclohexanecarboxamide]	193 to 194 °C
O=C(N[C@H](Cc1cccc(OC(F)(F)C(F)F)c1)[C@@H](O)c1csc(-c2ccccc2)n1)c1ccc(F)c2ccccc12 (racemic) [Example 362, 4-fluoro-N-{(1RS,2RS)-2-hydroxy-2-(2-phenyl-1,3-thiazol-4-yl)-1-[3-(1,1,2,2-tetrafluoroethoxy)benzyl]ethyl}-1-naphthamide]	148 to 150 °C
CC(C)(C)c1ccc(C[C@@H](NC(=O)c2cccc3c2C=CCCC3)[C@@H](O)c2cccc(Cl)c2)cc1 (racemic) [Example 272, N-[(1RS,2SR)-1-(4-tert-butylbenzyl)-2-(3-chlorophenyl)-2-hydroxyethyl]-6,7-dihydro-5H-benzo[a][7]annulene-1-carboxamide]	142 to 143 °C
O=C(N[C@H](Cc1ccc(C(F)(F)F)cc1)[C@@H](O)c1ccc(Cl)s1)c1cccc2c1C=CCCC2 (racemic) [Example 198, N-[(1RS,2RS)-2-(5-chloro-2-thienyl)-2-hydroxy-1-[4-(trifluoromethyl)benzyl]ethyl]-6,7-dihydro-5H-benzo[a]cycloheptene-1-carboxamide]	184 to 185 °C
CC(C)(C)Oc1ccc(C[C@@H](NC(=O)c2cccc3c2C=CCCC3)[C@@H](O)c2cccc(Cl)c2)cc1 (racemic) [Example 276, N-[(1RS,2SR)-1-(4-tert-butoxybenzyl)-2-(3-chlorophenyl)-2hydroxyethyl]-6,7-dihydro-5H-benzo[a][7]annulene-1-carboxamide]	180 to 181 °C
O=C(N[C@H](Cc1cccc(OC(F)(F)C(F)F)c1)[C@@H](O)c1ccc(F)cc1)c1cccc2c(Cl)cccc12 (racemic) [Example 333, 5-chloro-N-[(1RS,2SR)-2-(4-fluorophenyl)-2-hydroxy-1-[3-(1,1,2,2-tetrafluoroethoxy)benzyl]ethyl]naphthalene-1-carboxamide]	174 to 175 °C
O=C(N[C@H](Cc1cccc(OC(F)(F)C(F)F)c1)[C@@H](O)c1ccc(OCc2ccc(F)cc2)cc1)c1cccc2c1C=CCCC2 (racemic) [Example 245, N-{(1RS,2SR)-2-{4-[(4-fluorobenzyl)oxy]phenyl}-2-hydroxy-1-[3-(1,1,2,2-tetrafluoroethoxy)benzyl]ethyl}-6,7-dihydro-5H-benzo[a][7]annulene-1-carboxamide]	144 to 145 °C
CCCCNC(=O)c1ccc([C@H](O)[C@@H](Cc2cccc(OC(F)(F)C(F)F)c2)NC(=O)c2cccc3c2C=CCCC3)cc1 (racemic) [Example 317, N-[(1RS,2SR)-2-[4-[(butylamino)carbonyl]phenyl]-2-hydroxy-1-[3-(1,1,2,2-tetrafluoroethoxy)benzyl]ethyl]-6,7-dihydro-5H-benzo[a]cycloheptene-1-carboxamide]	207 to 208 °C
CC(C)c1cccc(C[C@@H](NC(=O)c2cccc3c2C=CCCC3)[C@@H](O)c2ccc(F)cc2)c1 (racemic) [Example 323, N-[(1RS,2SR)-2-(4-fluorophenyl)-2-hydroxy-1-(3-isopropylbenzyl)ethyl]-6,7-dihydro-5H-benzo[a]cycloheptene-1-carboxamide]	165 to 167 °C
O=C(CC1CCCC1)N[C@H](Cc1ccc(C(F)(F)F)cc1)[C@@H](O)c1ccc(F)cc1 (racemic) [Example 44, 2-cyclopentyl-N-[(1RS,2SR)-2-(4-fluorophenyl)-2-hydroxy-1-[4-(trifluoromethyl)benzyl]ethyl]acetamide]	195 to 196 °C
CC1(C)COc2ccc(C[C@@H](NC(=O)c3cccc4c3C=CCCC4)[C@@H](O)c3cccc(Cl)c3)cc21 (racemic) [Example 377, N-{(1RS,2SR)-2-(3-chlorophenyl)-1-[(3,3-dimethyl-2,3-dihydro-1-benzofuran-5-yl)methyl]-2-hydroxyethyl}-6,7-dihydro-5H-benzo[a]cycloheptene-1-carboxamide]	149 to 150 °C
CCCCOc1ccc([C@H](O)[C@@H](Cc2cccc(OC(F)(F)C(F)F)c2)NC(=O)c2cccc3c2C=CCCC3)cc1 (racemic) [Example 244, N-{(1RS,2SR)-2-(4-butoxyphenyl)-2-hydroxy-1-[3-(1,1,2,2-tetrafluoroethoxy)benzyl]ethyl}-6,7-dihydro-5H-benzo[a][7]annulene-1-carboxamide]	126 to 127 °C

Further lines, results first:

melting point	SMILES
189 to 192 °C	CC(C)c1ccc(C[C@@H](NC(=O)c2ccc(F)c3ccccc23)[C@@H](O)c2ccc(F)cc2)cc1 (racemic) [Example 154, 4-fluoro-N-[(1RS,2SR)-2-(4-fluorophenyl)-2-hydroxy-1-(4-isopropylbenzyl)ethyl]naphthalene-1-carboxamide]
155 to 156 °C	O=C(N[C@H](Cc1ccc(C(F)(F)F)cc1)[C@@H](O)c1ccc(F)cc1)c1cccc2c1OCCCO2 (racemic) [Example 113, N-[(1RS,2SR)-2-(4-fluorophenyl)-2-hydroxy-1-[4-(trifluoromethyl)benzyl]ethyl]-3,4-dihydro-2H-1,5-benzodioxepine-6-carboxamide]
212 to 213 °C	O=C(N[C@@H](Cc1ccc(C(F)(F)F)cc1)[C@H](O)c1ccc(F)cc1)c1ccc(C(F)F)c2ccccc12 [Example 64, 4-(difluoromethyl)-N-((1S,2R)-2-(4-fluorophenyl)-2-hydroxy-1-((4-(trifluoromethyl)phenyl)methyl)ethyl)-1-naphthalenecarboxamide]
201 to 203 °C	O=C(N[C@H](Cc1ccc(C(F)(F)F)cc1)[C@@H](O)c1ccc(Cl)s1)c1ccc(F)c2ccccc12 (racemic) [Example 197, N-[(1RS,2RS)-2-(5-chloro-2-thienyl)-2-hydroxy-1-[4-(trifluoromethyl)benzyl]ethyl]-4-fluoronaphthalene-1-carboxamide]
197 to 198 °C	O=C(N[C@H](Cc1ccc(C(F)(F)F)cc1)[C@@H](O)c1ccc(F)c(F)c1)c1ccc(F)c2ccccc12 (racemic) [Example 183, N-((1RS,2SR)-2-(3,4-difluorophenyl)-2-hydroxy-1-((4-(trifluoromethyl)phenyl)methyl)ethyl)-4-fluoro-1-naphthalenecarboxamide]
211 to 212 °C	O=C(N[C@H](Cc1ccc(C(F)(F)F)cc1)[C@@H](O)c1ccc(F)cc1)c1ccc(CCc2ccc(Cl)cc2)cc1 (racemic) [Example 92, 4-[2-(4-chlorophenyl)ethyl]-N-[(1RS,2SR)-2-(4-fluorophenyl)-2-hydroxy-1-[4-(trifluoromethyl)benzyl]ethyl]benzenecarboxamide]
170 to 171 °C	COCc1ccc(C(=O)N[C@H](Cc2ccc(C(F)(F)F)cc2)[C@@H](O)c2ccc(F)cc2)c2ccccc12 (racemic) [Example 65, N-((1RS,2SR)-2-(4-fluorophenyl)-2-hydroxy-1-((4-(trifluoromethyl)phenyl)methyl)ethyl)-4-((methyloxy)methyl)-1-naphthalenecarboxamide]
179 to 180 °C	O=C(N[C@H](Cc1cccc(O)c1)[C@@H](O)c1ccc(F)cc1)c1ccc(F)c2ccccc12 (racemic) [Example 286, 4-fluoro-N-[(1RS,2SR)-2-(4-fluorophenyl)-2-hydroxy-1-(3-hydroxybenzyl)ethyl]-1-naphthamide]
207 to 208 °C	O=C(N[C@H](Cc1ccc(F)cc1)[C@@H](O)c1ccc(C(F)(F)F)cc1)c1cccc2ccccc12 (racemic) [Example 212, N-((1RS,2SR)-1-((4-fluorophenyl)methyl)-2-hydroxy-2-(4-(trifluoromethyl)phenyl)ethyl)-1-naphthalenecarboxamide]
169 to 170 °C	CN(C)c1ccc(C(=O)N[C@H](Cc2ccc(C(F)(F)F)cc2)[C@@H](O)c2ccc(F)cc2)c2ccccc12 (racemic) [Example 75, 4-(dimethylamino)-N-((1RS,2SR)-2-(4-fluorophenyl)-2-hydroxy-1-((4-(trifluoromethyl)phenyl)methyl)ethyl)-1-naphthalenecarboxamide]
189 to 190 °C	O=C(N[C@H](Cc1cccc(OC(F)(F)F)c1)[C@@H](O)c1ccc(F)cc1)c1ccc(F)c2ccccc12 (racemic) [Example 132, 4-fluoro-N-[(1RS,2SR)-2-(4-fluorophenyl)-2-hydroxy-1-[3-(trifluoromethoxy)benzyl]ethyl]naphthalene-1-carboxamide]
175 to 176 °C	CC(C)(C)C(Cc1ccccc1)C(=O)N[C@H](Cc1ccc(C(F)(F)F)cc1)[C@@H](O)c1ccc(F)cc1 (mixture of isomers) [Example 112, 2-benzyl-N-[(1RS,2SR)-2-(4-fluorophenyl)-2-hydroxy-1-[4-(trifluoromethyl)benzyl]ethyl]-3,3-dimethylbutyramide]
210 to 211 °C	O=C(N[C@H](Cc1ccc(C(F)(F)F)cc1)[C@@H](O)c1ccc(F)cc1)c1cccc2c1CCCCC2 (racemic) [Example 42, N-[(1RS,2SR)-2-(4-fluorophenyl)-2-hydroxy-1-[4-(trifluoromethyl)benzyl]ethyl]-6,7,8,9-tetrahydro-5H-benzo[a]cycloheptene-1-carboxamide]
255 to 256 °C	NC(=O)c1ccc(C(=O)N[C@H](Cc2ccc(C(F)(F)F)cc2)[C@@H](O)c2ccc(F)cc2)c2ccccc12 (racemic) [Example 104, N1-[(1RS,2SR)-2-(4-fluorophenyl)-2-hydroxy-1-[4-(trifluoromethyl)benzyl]ethyl]naphthalene-1,4-dicarboxamide]
